Experiment: in vivo
Conditions: female, dog, plasma, po, 10 mg/day
Description: A study was conducted to determine the levels of oxybutynin and its active metabolite, N-desethyloxybutynin, present in plasma following oral and intravaginal administration of oxybutynin in dogs.
A 14 day study was conducted, where 8 young adult females were randomly assigned to 4 groups of 2 dogs each.

SMILES: CCN(CC)CC#CCOC(=O)C(O)(c1ccccc1)C1CCCCC1 (stereo not shown) [oxybutynin, 4-diethylaminobut-2-ynyl2-cyclohexyl-2-hydroxy-2-phenyl-ethanoate]
- Cmax: ~17.9 ng/mL
